From US20160280651A1, “COMPOUNDS THAT INDUCE ABA RESPONSES” (THE REGENTS OF THE UNIVERSITY OF CALIFORNIA, priority 2013, published 2016) come the findings set out here.

For assay [1], the system named is PYR/PYL receptors and the PP2C HAB1. In words: Yeast two-hybrid agonist assay (screens and receptor sensitivity). In kind it is cell-based, Arabidopsis. Particulars: 5 μM of test chemicals. On the procedure:
FIG. 1A-FIG. 1B. Novel ABA agonists bind to multiple PYR/PYL. (A) Chemical structure of naturally occurring (+)-ABA, its (−)analog and selected ABA agonists. (B) Yeast two-hybrid agonist assays of PYR/PYL receptor sensitivity to 5 μM of test chemicals. Specific PYR/PYL Receptors and the PP2C HAB1 are expressed as Ga14 BD or AD fusion proteins respectively, as described in the text.
A previously described yeast two-hybrid system was used in high throughput screens (HTS) to identify ABA agonists (see, Peterson F C, et al. (2010) Structural basis for selective activation of ABA receptors. Nature Structural & Molecular Biology 17(9):1109-1111). In this system the agonist promoted receptor-PP2C interaction drives expression of a URA3 or HIS3 reporter gene and rescues uracil or histidine auxotrophy of parental strains (Peterson F C, et al. (2010); Vidal M, Brachmann R K, Fattaey A, Harlow E, & Boeke J D (1996) Reverse two-hybrid and one-hybrid systems to detect dissociation of protein-protein and DNA-protein interactions. Proceedings of the National Academy of Sciences of the United States of America 93(19):10315-10320). […]

The test system of assay [2] is ABA-responsive genes. In words: ATH1 microarray analysis. Format: in vivo, Arabidopsis. Particulars: wild-type seedlings; 25 μM. On the procedure: (§1) FIG. 9A-FIG. 9D. LC66C6 induces numerous ABA-responsive genes. […] Ten-day old seedlings were treated with carrier solvent (DMSO) or either 25 μM ABA, pyrabactin or LC66C6 for 8 hours. Total RNA was then prepared labeled and hybridized to ATH1 microarrays. Data plotted are log 2 transformed average expression values for ˜13K probes that were detectable across all experiments. Data shown are averages determined from triplicate biological replicates. (C) and (D) show the expression of a reporter gene in different plant tissues after treatment with vehicle (DMSO), pyrabactin, LC66C6, or (+)-ABA.
Total RNA was isolated using RNAeasy Plant Mini Kit (Qiagen, USA) according to the manufacturer's instructions. cDNA synthesis, labeling and hybridization to the Arabidopsis ATH1 chips (Affymetrix, USA) were performed by the IIGB Core Instrumentation Facility of University of California at Riverside using Affymetrix protocols. Biological triplicate samples were hybridized for DMSO controls, ABA, pyrabactin and quinabactin treatments; compound were applied at 25 μM final concentration and RNA prepared from frozen tissue after 6 hours exposure to compounds or controls. Expression signals for probe sets were calculated and normalized by MASS Statistical Algorithm (Affymetrix, USA). Experimental filtering of array data was performed for the presence of signal in all experiments. […]

The subject of assay [3] is ABA-responsive genes. Briefly: Quantitative RT-PCR of ABA-responsive genes in Arabidopsis. Format: in vivo. Particulars: for Induction of MAPKKK18, RD29A and RD29B mRNAs: Col and Ler ecotypes and pyr1, pyl1, pyl2, pyl3, pyl4 single mutants; for Expression of ABF3, GBF3, NCED3 and RD29A: Col wild-type plants; for Expression of RD29B and MAPKKK18 mRNA: wild-type plants. The method, then: as §1
FIG. 10. ABA-responsive gene expression in PYR/PYL single mutants. The response of the ABA-responsive MAPKKK18, RD29A, and RD29B mRNAs to LC66C6, ABA and pyrabactin were characterized in the Col and Ler ecotypes and the pyr1, pyl1, ply2, pyl3 and pyl4 single mutant genotypes.
FIG. 11. LC66C6 induces ABA-responsive gene expression in wild-type plants, abi1-1 and PYR/PYL quadruple mutants.
Total RNA was isolated using Plant RNA purification reagent (Invitrogen, USA) according to the manufacturer's instructions. cDNA was synthesized from 1 μg of total RNA using the QantiTec reverse transcription kit (Qiagen, USA). Real-time PCR using Maxima® SYBR Green/Fluorescein qPCR Master Mix (Fermentas) was performed with the iQ5 real-time PCR detection system (Bio-Rad, Hercules, Calif.). The relative amounts of target mRNAs were determined using the relative standard curve method and were normalized by relative amount of internal control mRNA. Biological triplicate experiments were performed.

In the case of `CCCN1C(=O)CCc2cc(NS(=O)(=O)Cc3ccc(C)cc3)ccc21` [LC66C6], the “Agonist activity and receptor selectivity in yeast two-hybrid assay” value in assay [1] is recorded as “agonist of multiple PYR/PYL receptors”. The “Genome-wide expression pattern compared with ABA” value in assay [2] was “induces a similar set of genes to those induced by ABA”. Further, in assay [3], the “Induction of MAPKKK18, RD29A and RD29B mRNAs” value was “induced”; the “Expression of ABF3, GBF3, NCED3 and RD29A” value is “induced expression of ABF3, GBF3, NCED3, and RD29A in a dose dependent manner”; the “Expression of RD29B and MAPKKK18 mRNA” value was “induced the expression of RD29B and MAPKKK18 mRNA in a dose dependent manner in wild-type plants”.

Take `O=S(=O)(NCc1ccccn1)c1ccc(Br)c2ccccc12` [pyrabactin, reference compound]: in assay [1], the “Agonist activity and receptor selectivity in yeast two-hybrid assay” value is given as “much greater receptor selectivity than ABA or the new agonist LC66C6”. In addition, the “Genome-wide expression pattern compared with ABA” value in assay [2] is “did not induce an expression pattern similar to that of ABA”. Further, in assay [3], the “Induction of MAPKKK18, RD29A and RD29B mRNAs” value was “did not significantly induce expression”; the “Expression of ABF3, GBF3, NCED3 and RD29A” value is recorded as “did not induce significant expression”; the “Expression of RD29B and MAPKKK18 mRNA” value is listed as “did not induce gene expression in wild-type plants”.
